Active and inactive are the calls of the source. The rule behind the calls is not given here.
Experiments:
[1] = Antioxidant activity assessed as reduction of Fe3+-TPTZ to Fe2+-TPTZ measured every 15 secs for 4 mins by FRAP assay; format: functional
HT-22 [2] = test: Neuroprotective activity against glutamate-induced mouse HT22 cells assessed as increase in cell survival at 25 to 50 uM cotreated with glutamate measured after 24 hrs by MTT assay; format: functional, cell-based
HT-22 [3] = test: Neuroprotective activity against glutamate-induced mouse HT22 cells assessed as increase in cell survival at 25 uM cotreated with glutamate measured after 24 hrs by MTT assay; format: functional, cell-based
HT-22 [4] = test: Neuroprotective activity against glutamate-induced mouse HT22 cells assessed as cell survival at 25 uM cotreated with glutamate measured after 24 hrs by MTT assay relative to control; format: functional
HT-22 [5] = test: Neuroprotective activity against glutamate-induced mouse HT22 cells assessed as increase in cell survival at 5 to 25 uM cotreated with glutamate measured after 24 hrs by MTT assay; format: functional, cell-based
[6] = target: T1, Microtubule-associated protein tau (Homo sapiens, UniProt P10636); test: Inhibition of tau (unknown origin) aggregation expressed in Escherichia coli (DE3) at 100 uM incubated for overnight by Th-S fluorescence staining based UV-Vis spectrophotometer (reference value: 0.0 +/- 2.4%)
T1 sequence (P10636 whole entry): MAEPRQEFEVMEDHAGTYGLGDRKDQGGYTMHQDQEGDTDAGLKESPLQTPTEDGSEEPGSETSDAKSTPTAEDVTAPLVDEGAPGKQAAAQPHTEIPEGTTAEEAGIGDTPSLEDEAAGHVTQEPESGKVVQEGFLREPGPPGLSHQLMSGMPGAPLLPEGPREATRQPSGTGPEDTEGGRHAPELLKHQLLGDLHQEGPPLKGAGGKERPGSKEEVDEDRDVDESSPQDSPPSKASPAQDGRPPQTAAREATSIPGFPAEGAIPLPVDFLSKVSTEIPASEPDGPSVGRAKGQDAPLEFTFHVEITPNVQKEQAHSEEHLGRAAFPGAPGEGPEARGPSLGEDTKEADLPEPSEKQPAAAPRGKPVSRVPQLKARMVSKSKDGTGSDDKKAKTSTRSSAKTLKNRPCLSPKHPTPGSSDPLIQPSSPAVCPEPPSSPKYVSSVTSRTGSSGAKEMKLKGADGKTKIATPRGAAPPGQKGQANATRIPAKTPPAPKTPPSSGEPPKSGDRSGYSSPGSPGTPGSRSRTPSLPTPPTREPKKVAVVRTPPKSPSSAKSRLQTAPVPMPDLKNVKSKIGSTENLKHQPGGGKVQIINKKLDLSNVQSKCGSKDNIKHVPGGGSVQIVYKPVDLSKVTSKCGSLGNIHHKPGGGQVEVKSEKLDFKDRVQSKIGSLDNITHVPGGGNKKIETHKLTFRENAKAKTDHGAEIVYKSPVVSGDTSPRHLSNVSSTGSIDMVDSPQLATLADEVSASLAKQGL

HT-22 [7] = test: Neuroprotective activity against IAA-induced ischemia in mouse HT22 cells assessed as increase in cell viability cotreated with IAA for 2 hrs followed by IAA wash out measured after 24 hrs by MTT assay; format: functional, cell-based
BV-2 = test: Antiinflammatory activity in mouse BV2 cells assessed as inhibition of LPS-induced microglial activation after 24 hrs by Griess reagent based assay; format: functional, cell-based; details: BV-2, 24 h
[8] = target: T2, Amyloid-beta precursor protein (Homo sapiens, UniProt P05067); test: Inhibition of amyloid beta 42 (unknown origin) expressed in Escherichia coli BL21 (DE3) aggregation at 100 uM incubated for overnight by Th-S fluorescence staining based UV-Vis spectrophotometer (reference value: 0 +/- 4.4%)
T2 sequence (P05067 whole entry): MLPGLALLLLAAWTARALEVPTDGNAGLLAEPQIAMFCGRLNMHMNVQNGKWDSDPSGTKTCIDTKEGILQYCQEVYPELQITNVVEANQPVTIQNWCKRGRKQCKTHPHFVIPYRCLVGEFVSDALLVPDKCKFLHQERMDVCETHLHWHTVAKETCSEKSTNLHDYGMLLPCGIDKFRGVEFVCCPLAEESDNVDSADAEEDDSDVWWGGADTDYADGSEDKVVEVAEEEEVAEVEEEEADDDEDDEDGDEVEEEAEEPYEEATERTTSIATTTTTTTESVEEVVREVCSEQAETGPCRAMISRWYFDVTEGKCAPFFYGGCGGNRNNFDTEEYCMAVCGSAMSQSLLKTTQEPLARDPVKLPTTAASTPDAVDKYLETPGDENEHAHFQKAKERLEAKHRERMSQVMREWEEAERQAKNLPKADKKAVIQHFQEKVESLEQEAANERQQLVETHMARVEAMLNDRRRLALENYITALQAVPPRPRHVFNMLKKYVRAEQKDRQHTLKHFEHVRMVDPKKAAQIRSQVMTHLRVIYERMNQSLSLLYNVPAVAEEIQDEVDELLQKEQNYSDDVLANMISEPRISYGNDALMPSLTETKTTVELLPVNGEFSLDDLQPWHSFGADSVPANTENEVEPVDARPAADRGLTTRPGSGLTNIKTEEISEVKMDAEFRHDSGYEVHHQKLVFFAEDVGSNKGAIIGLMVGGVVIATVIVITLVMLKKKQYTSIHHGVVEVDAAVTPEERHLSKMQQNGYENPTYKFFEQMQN

HT-22 [9] = test: Neuroprotective activity against glutamate-induced mouse HT22 cells assessed as increase in cell survival at 10 uM cotreated with glutamate measured after 24 hrs by MTT assay; format: functional, cell-based
HT-22 [10] = test: Neurotoxicity against mouse HT22 cells assessed as decrease in cell viability at 25 uM measured after 24 hrs by MTT assay; format: toxicity, cell-based; details: ht-22, 24 h
PC-12 = test: Induction of rat PC12 cells differentiation assessed as neurite outgrowth at 10 uM after 24 hrs relative to control; format: functional
[11] = target: T1, Microtubule-associated protein tau; test: Inhibition of tau (unknown origin) aggregation expressed in Escherichia coli (DE3) at 10 uM incubated for overnight by Th-S fluorescence staining based UV-Vis spectrophotometer (reference value: 0.0 +/- 1.4%)
[12] = target: T2, Amyloid-beta precursor protein; test: Inhibition of amyloid beta 42 (unknown origin) expressed in Escherichia coli BL21 (DE3) aggregation at 10 uM incubated for overnight by Th-S fluorescence staining based UV-Vis spectrophotometer (reference value: 0 +/- 1%)
[13] = target: T2, Amyloid-beta precursor protein; test: Inhibition of amyloid beta 42 (unknown origin) expressed in Escherichia coli BL21 (DE3) aggregation incubated for overnight by Th-S fluorescence staining based UV-Vis spectrophotometer
HT-22 [14] = test: Neurotoxicity against mouse HT22 cells assessed as decrease in cell viability at 10 uM measured after 24 hrs by MTT assay; format: toxicity, cell-based; details: ht-22, 24 h
[15] = target: T1, Microtubule-associated protein tau; test: Inhibition of tau (unknown origin) aggregation expressed in Escherichia coli (DE3) incubated for overnight by Th-S fluorescence staining based UV-Vis spectrophotometer
[16] = Antioxidant activity assessed as reduction of Fe3+-TPTZ to Fe2+-TPTZ using 1:1 test compound to silibinin ratio measured every 15 secs for 4 mins by FRAP assay; format: functional
HT-22 [17] = test: Neurotoxicity against mouse HT22 cells assessed as decrease in cell viability at 25 uM using 1:1 test compound to silibinin ratio measured after 24 hrs by MTT assay; format: toxicity, cell-based; details: ht-22, 24 h
HT-22 [18] = test: Neuroprotective activity against glutamate-induced mouse HT22 cells assessed as increase in cell survival at 1 to 25 uM cotreated with glutamate measured after 24 hrs by MTT assay; format: functional, cell-based
HT-22 [19] = test: Neuroprotective activity against glutamate-induced mouse HT22 cells assessed as increase in cell survival at 1 to 25 uM using 1:1 test compound to silibinin ratio cotreated with glutamate measured after 24 hrs by MTT assay; format: functional, cell-based
[20] = Antioxidant activity assessed as reduction of Fe3+-TPTZ to Fe2+-TPTZ using equimolar mixture of test compound and cinnamic acid measured every 15 secs for 4 mins by FRAP assay; format: functional
[21] = Antioxidant activity assessed as ferric ion reduction by measuring FeSO4 equivalents reducing Fe3+-TPTZ to Fe2+-TPTZ measured every 15 secs for 4 mins by FRAP assay; format: functional
[22] = Antioxidant activity assessed as reduction of Fe3+-TPTZ to Fe2+-TPTZ using 1:1 test compound to ferulic acid ratio measured every 15 secs for 4 mins by FRAP assay; format: functional
HT-22 [23] = test: Neurotoxicity against mouse HT22 cells assessed as decrease in cell viability at 25 uM using 1:1 test compound to ferulic acid ratio measured after 24 hrs by MTT assay; format: toxicity, cell-based; details: ht-22, 24 h
HT-22 [24] = test: Neurotoxicity against mouse HT22 cells assessed as decrease in cell viability at 25 uM using 1:1 test compound to cinnamic acid ratio measured after 24 hrs by MTT assay; format: toxicity, cell-based; details: ht-22, 24 h
HT-22 [25] = test: Neuroprotective activity against glutamate-induced mouse HT22 cells assessed as increase in cell survival at 1 to 25 uM using 1:1 test compound to ferulic acid ratio cotreated with glutamate measured after 24 hrs by MTT assay; format: functional, cell-based

## COc1cc(C2Oc3cc([C@H]4Oc5cc(OC(=O)CCc6ccccc6)cc(O)c5C(=O)[C@@H]4O)ccc3OC2CO)ccc1O (stereo partly drawn)
[1]
  Activity: inactive
HT-22 [2]
  Activity: inactive

## COc1cc(C(=O)Oc2cc(O)c3c(c2)O[C@H](c2ccc4c(c2)OC(c2ccc(O)c(OC)c2)C(CO)O4)[C@@H](O)C3=O)ccc1O (stereo partly drawn)
[1]
  Activity: Active
HT-22 [3]
  Activity: Active

## O=c1c(O)c(-c2ccc(O)c(O)c2)oc2cc(O)cc(O)c12 [QUERCETIN]
HT-22 [4]
  Survival: 80%

## COc1cc(C2Oc3cc([C@H]4Oc5cc(OC(=O)c6ccccc6)cc(O)c5C(=O)[C@@H]4O)ccc3OC2CO)ccc1O (stereo partly drawn)
[1]
  Activity: inactive
HT-22 [3]
  Activity: inactive

## COc1cc(C2Oc3cc([C@H]4Oc5cc(OC(=O)CCc6ccc7c(c6)OC(C)(C)O7)cc(O)c5C(=O)[C@@H]4O)ccc3OC2CO)ccc1O (stereo partly drawn)
[1]
  Activity: inactive
HT-22 [2]
  Activity: inactive

## COc1cc(C2Oc3cc([C@H]4Oc5cc(OC(=O)/C=C/c6ccccc6)cc(O)c5C(=O)[C@@H]4O)ccc3OC2CO)ccc1O (stereo partly drawn)
HT-22 [5]
  Activity: Active
[6]
  inhibition: 76.1%
[1]
  Activity: inactive
HT-22 [7]
  EC50: 1.5 µM
BV-2
  EC50: 4.2 µM
[8]
  inhibition: 61.1%
HT-22 [2]
  Activity: Active
HT-22 [9]
  Activity: Active
HT-22 [3]
  Activity: inactive
HT-22 [10]
  Activity: Non-Toxic
PC-12
  Activity: 40%
[11]
  inhibition: 37.1%
[12]
  inhibition: 17.1%

## COc1cc(/C=C/C(=O)Oc2cc(O)c3c(c2)O[C@H](c2ccc4c(c2)O[C@H](c2ccc(O)c(OC)c2)[C@@H](CO)O4)[C@@H](O)C3=O)ccc1O
[13]
  IC50: 85.5 µM
[6]
  inhibition: 67.2%
[1]
  Activity: Active
HT-22 [7]
  EC50: 1.4 µM
BV-2
  EC50: 9.8 µM
[8]
  inhibition: 52.7%
HT-22 [14]
  Activity: Toxic
[15]
  IC50: 27.2 µM
PC-12
  Activity: 50%
[11]
  inhibition: 36.8%
[12]
  inhibition: 13.2%

## COc1cc(C2Oc3cc([C@H]4Oc5cc(OC(=O)/C=C/c6ccc7c(c6)OC(C)(C)O7)cc(O)c5C(=O)[C@@H]4O)ccc3OC2CO)ccc1O (stereo partly drawn)
[1]
  Activity: inactive
HT-22 [2]
  Activity: Active
HT-22 [9]
  Activity: Active
HT-22 [3]
  Activity: inactive

## COc1cc(/C=C/C(=O)O)ccc1O [FERULATE]
[16]
  Activity: Active
HT-22 [17]
  Activity: Toxic
HT-22 [18]
  Activity: inactive
[1]
  Activity: Active
HT-22 [7]
  EC50: > 10 µM
BV-2
  EC50: > 10 µM
HT-22 [10]
  Activity: Non-Toxic
HT-22 [19]
  Activity: inactive
PC-12
  Activity: inactive

## COc1cc(C2Oc3cc([C@H]4Oc5cc(O)cc(O)c5C(=O)[C@@H]4O)ccc3OC2CO)ccc1O (stereo partly drawn) [SILIBININ]
[6]
  inhibition: 10.1%
[20]
  Activity: Active
[21]
  Activity: 0.6 equiv
[22]
  Activity: Active
HT-22 [18]
  Activity: inactive
HT-22 [7]
  EC50: > 10 µM
BV-2
  EC50: > 10 µM
[8]
  inhibition: 16%
HT-22 [23]
  Activity: Toxic
HT-22 [10]
  Activity: Non-Toxic
PC-12
  Activity: 38%
[11]
  inhibition: 2%
[12]
  inhibition: 4.8%
HT-22 [24]
  Activity: Toxic
HT-22 [25]
  Activity: inactive

## COc1cc(C2Oc3cc([C@H]4Oc5cc(OC(=O)/C=C/c6cc(OC)c(O)c(OC)c6)cc(O)c5C(=O)[C@@H]4O)ccc3OC2CO)ccc1O (stereo partly drawn)
[1]
  Activity: Active
HT-22 [2]
  Activity: Active

— ChEMBL document CHEMBL4196016, “Regioselective synthesis of 7-O-esters of the flavonolignan silibinin and SARs lead to compounds with overadditive neuroprotective effects” (Eur J Med Chem, 2018)
